Where two headings read alike, the source gives them in different places. Residues, ends and D or L forms follow the SMILES beside them. No end group written: not given here. *: point of attachment. Biotin = O=C1N[C@H]2[C@H](CS[C@H]2CCCCC(=O)*)N1 Some results are limits rather than exact numbers.

The target in one assay is FGFR2-IIIC (Homo sapiens, UniProt P21802). Nature of the assay: FGF receptor binding assay: inhibition of 125I-bFGF binding to FGF receptor. As to the method:
The ability of a peptide compound to bind to an FGF receptor can be determined using one or both of the receptor binding assays described in this example, which measure the ability of a test compound to inhibit the binding of radiolabeled bFGF to the FGF receptor. The first assay is a cell-based assay, utilizing FGF receptor-expressing cells. Cells expressing an FGF receptor are seeded on a 96 well plate (50,000 cells/well) and incubated overnight at 37° C., 5% CO2. The cells are then washed once with binding buffer (Dulbecco's Modified Eagle's Medium (DMEM) with HEPES, gelatin and heparin). A test peptide is diluted to the desired concentration in binding buffer with heparin (15 U/ml) and added to the cells (25 μl per well). ^125 I-bFGF (50,000 cpm/well; Amersham Life Sciences), diluted in binding buffer with heparin, is added to each well (25 μl per well so that final volume is 50 μl). The cells are incubated in a humidified chamber at 4° C. for 3 hours. The cells are washed twice with binding buffer to remove unbound material. The washed cells are then dissolved in 100 μl of 1N NaOH and counted in a gamma counter. The ability of a test compound to bind to FGFR is evidenced by the reduced binding of ^125 I-bFGF to the cells in the presence of the test compound as compared to the binding of ^125 I-bFGF to the cells in the absence of the test compound.
A second FGFR binding assay utilizes biotinylated soluble FGFR. Biotinylated FGFR is mixed in an eppendorf tube with ^125 I-bFGF and a test compound in binding buffer. The tubes are placed on an eppendorf roller at 4° C. for 1.5 hours. Magnetic streptavidin beads (CPG, Inc.) are prepared by washing twice with binding buffer. After the 1.5 hour incubation of the tubes, 15 μl of magnetic streptavidin beads are added to each tube and continued on the eppendorf roller for 10 minutes at 4° C. to allow the strepavidin to interact with the biotinylated FGFR. The tubes are removed from the roller and spun down in a microfuge for 2 minutes at 3000 rpm. Using magnets, the magnetic beads are washed twice with binding buffer. 100 μl of binding buffer is added to each tube and the contents are moved to a 12×75 mm test tube. The contents (i.e., strepavidin beads, with biotinylated FGFR and ^125 I-bFGF bound thereto) are counted in a Gamma counter. The ability of a test compound to bind to FGFR is evidenced by the reduced binding of ^125 I-bFGF to the biotinylated FGFR in the presence of the test compound as compared to the binding of ^125 I-bFGF to the biotinylated FGFR in the absence of the test compound.

The subject of another assay is NIH 3T3 cells. The class given is cell-based. As to the method:
A second functional assay for FGFR is a proliferation assay, based on the fact that NIH 3T3 cells show enhanced growth in the presence of increasing concentrations of bFGF. NIH 3T3 cells are cultured (e.g., about 3 days) with bFGF (10 nM) in the presence or absence of a test peptide compound. Cell growth is quantitated using a standard method for detecting cell growth, such as tritiated thymidine incorporation or uptake of 3, ([…])2,5-diphenyl-tetrazolium bromide (MTT). MTT (commercially available from Sigma Chemical Co.) is a chromogenic substrate that is converted from yellow to blue in viable cells, which can be detected spectrophotometrically.

The next assay deals with p42-MAP kinase. Nature of the assay: Signal transduction assay: bFGF-induced phosphorylation/activation of MAP kinase in NIH 3T3 cells. The class given is cell-based. An excerpt: The effect of peptide compounds on the functional activity of an FGF receptor can be evaluated in one or both of the functional assays described in this example. The first assay is a signal transduction assay, exploiting the fact that bFGF binding to FGFR initiates a phosphorylation cascade that includes the phosphorylation of MAP kinase (MAP-K). Accordingly, the ability of a test compound to modulate bFGF-induced phosphorylation of MAP-K is examined. NIH 3T3 cells are synchronized to quiescence by growing in medium containing 0.5% fetal bovine serum (FBS) for 2 days. The cells are then shifted into fresh 0.5% FBS-containing medium for 2 hours to reduce the basal level of MAP-K phosphorylation before the experiment. Test peptide compounds are dissolved in fresh dimethyl sulfoxide (DMSO) to 100 mg/ml and series dilutions are made in DMSO. […] Phosphorylation of MAP-K in the 3T3 cells is initiated by incubating the cells with the bFGF-containing medium in the presence or absence of test peptide for 15 minutes at 37° C. The phosphorylation is stopped by washing with cells with PBS and lysing the cells with sodium […] (SDS)-containing buffer. Cell lysates are separated on 12% SDS polyacrylamide gels and the proteins are transferred onto PVDF membranes. Membrane-bound cellular proteins are probed with a rabbit anti-phosphoMAP-K antibodies, followed by a goat anti-rabbit secondary antibody, labeled with horse radish peroxidase. The blots are then detected by the enhanced chemiluminescence (ECL) method.

The mark [1] stands for this setting: Table 5 peptides (bFGF-binding peptides).
[2] abbreviates: Table 3 peptides, inhibition of bFGF binding to FGFR2-IIIC.
The mark [3] stands for this setting: Table 3 peptides, bFGF-induced MAP-K phosphorylation, read-out: MAP-K.
Setting [4] is: Table 3 peptides, values given in mM.

Chain of FGFR2-IIIC (P21802 22-377 limits assumed, species assumed): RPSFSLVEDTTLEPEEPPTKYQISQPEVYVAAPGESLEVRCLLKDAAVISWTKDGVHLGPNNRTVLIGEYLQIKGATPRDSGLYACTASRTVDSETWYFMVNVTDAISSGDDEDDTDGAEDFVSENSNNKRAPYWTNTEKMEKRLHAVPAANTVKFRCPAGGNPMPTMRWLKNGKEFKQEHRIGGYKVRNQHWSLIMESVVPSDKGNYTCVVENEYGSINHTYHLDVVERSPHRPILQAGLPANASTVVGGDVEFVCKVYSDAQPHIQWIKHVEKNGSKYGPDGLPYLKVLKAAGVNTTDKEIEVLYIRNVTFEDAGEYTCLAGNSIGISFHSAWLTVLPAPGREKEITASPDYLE

In the case of `CC(C)C[C@H](NC(=O)[C@H](CC(C)C)NC(=O)[C@H](CC(=O)O)NC(=O)[C@H](CC(=O)O)NC(=O)[C@H](Cc1c[nH]c2ccccc12)NC(=O)[C@H](CC(=O)O)NC(=O)[C@H](Cc1ccc(O)cc1)NC(=O)CNC(=O)[C@H](C)NC(=O)[C@H](C)NC(=O)CNC(=O)[C@H](CC(=O)O)NC(=O)[C@H](C)NC(=O)CCCC[C@@H]1SC[C@@H]2NC(=O)N[C@@H]21)C(=O)NCC(=O)NCC(=O)N[C@@H](C)C(=O)N[C@@H](C)C(N)=O` [Compound 478, Biotin-ADGAAGYDWDDLLGGAA-NH] (Biotin-ADGAAGYDWDDLLGGAA-NH2), the IC50 on FGFR2-IIIC (setting [1]) is more than 0.1 mM; in the assay on NIH 3T3 cells, more than 100 µM. For the compound `CC(=O)NCC(=O)N[C@@H](CS)C(=O)N[C@H](C(=O)N[C@@H](CC(C)C)C(=O)N[C@@H](CC(C)C)C(=O)N[C@@H](Cc1ccc(O)cc1)C(=O)N[C@@H](CC(=O)O)C(=O)N[C@@H](CCC(=O)O)C(=O)N[C@@H](CCCNC(=N)N)C(=O)N[C@H](C(=O)N[C@@H](CS)C(=O)NCC(N)=O)[C@@H](C)O)C(C)C` [Compound 513, Acetyl-GCVLLYDERTCG-NH] (Ac-GCVLLYDERTCG-NH2), the IC50 in the assay with NIH 3T3 cells is more than 100 µM. The compound “GYLYLYMVG [Compound 656, H-GYLYLYMVG-OH*TFA]” gave an IC50 at FGFR2-IIIC (setting [2]) of more than 0.1 mM. In the case of “HYLRQYLMRFR-NH2 [Compound 672, H-HYLRQYLMRFR-NH*TFA]”, the IC50 at FGFR2-IIIC (setting [2]) is approximately 0.008 mM. Regarding “YLRQYLMRFR-NH2 [Compound 671, H-YLRQYLMRFR-NH*TFA]”, at FGFR2-IIIC (setting [2]), the “Binding IC50” value is given as “does not appear to further increase the IC50” and the IC50 is approximately 0.008 mM. For “GYLAQYMARG-NH2 [Compound 662, H-GYLAQYMARG-NH*TFA]”, on FGFR2-IIIC (setting [2]), the IC50 was approximately 0.3 mM. For the compound “GAHNLRQYLMRFLG [Compound 623, H-GAHNLRQYLMRFLG-OH*TFA]”, the IC50 at FGFR2-IIIC (setting [2]) was approximately 0.12 mM; in the assay with NIH 3T3 cells, approximately 100 µM; with p42-MAP kinase (setting [3]) it was approximately 50 µM. The “Effect on activation of MAP-K by bFGF” value in the assay on p42-MAP kinase (increasing concentrations of compound) is on record as “clearly antagonized”. For the compound “GKALEWYKSLMRMG-NH2 [Compound 661, H-GKALEWYKSLMRMG-NH*TFA]”, the IC50 at FGFR2-IIIC (setting [2]) was approximately 0.3 mM. Turning to “ADGAAGYDWDDLLGGAA-NH2 [Compound 477, H-ADGAAGYDWDDLLGGAA-NH*TFA]”, the IC50 on FGFR2-IIIC (setting [1]) was more than 0.1 mM; in the assay with NIH 3T3 cells, more than 100 µM. The matching figures for “Ac-GSWGDWERSGDWFG-NH2 [Compound 512, Acetyl-GSWGDWERSGDWFG-NH]”: more than 0.1 mM and more than 100 µM. The compound “GFLMMYMMG [Compound 566, H-GFLMMYMMG-OH*TFA]” yielded an IC50 on FGFR2-IIIC (setting [2]) of more than 0.1 mM. “GSLMRMG-NH2 [Compound 663, H-GSLMRMG-NH*TFA]”: the IC50 on FGFR2-IIIC (setting [4]) was more than 1 mM. On to “GYYLLWMVG [Compound 564, H-GYYLLWMVG-OH*TFA]”, for which, on FGFR2-IIIC (setting [2]), the IC50 is more than 0.1 mM. Consider “Ac-GHDGEMYG-OH [Compound 660, Acetyl-GHDGEMYG-OH]”, for which the IC50 on FGFR2-IIIC (setting [4]) is more than 1 mM. In the case of “GFLGKYMESLMRMG-NH2 [Compound 659, H-GFLGKYMESLMRMG-NH*TFA]”, the IC50 on FGFR2-IIIC (setting [2]) is approximately 0.3 mM. The same measure, in the same setting: the result for “GAHYLRQYLMRFRG-NH2 [Compound 668, H-GAHYLRQYLMRFRG-NH*TFA]” reads approximately 0.003 mM.

Regarding `CC(C)C[C@H](NC(=O)[C@H](CC(C)C)NC(=O)[C@H](CC(=O)O)NC(=O)[C@H](CC(=O)O)NC(=O)[C@H](Cc1c[nH]c2ccccc12)NC(=O)[C@H](CC(=O)O)NC(=O)[C@H](Cc1ccc(O)cc1)NC(=O)CNC(=O)[C@H](C)NC(=O)[C@H](C)NC(=O)CNC(=O)[C@H](CC(=O)O)NC(=O)[C@H](C)NC(=O)CCCC[C@@H]1SC[C@@H]2NC(=O)N[C@@H]21)C(=O)N[C@@H](CO)C(=O)NCC(=O)N[C@@H](C)C(=O)N[C@@H](C)C(N)=O` [Compound 476, Biotin-ADGAAGYDWDDLLSGAA-NH] (Biotin-ADGAAGYDWDDLLSGAA-NH2), the IC50 at FGFR2-IIIC (setting [1]) is more than 0.1 mM; in the assay on NIH 3T3 cells, more than 100 µM. “GAHYLRQYMMRFLG-NH2 [Compound 669, H-GAHYLRQYMMRFLG-NH*TFA]” came in with an IC50 on FGFR2-IIIC (setting [2]) of approximately 0.02 mM. For “ADGAAGSWGDWERSGDWFGGAA-NH2 [Compound 509]”, the IC50 at FGFR2-IIIC (setting [1]) was more than 0.1 mM; with NIH 3T3 cells, more than 100 µM.

Turning to “LRQYLMRFR-NH2 [Compound 670, H-LRQYLMRFR-NH*TFA]”, the IC50 at FGFR2-IIIC (setting [2]) is approximately 0.12 mM. With “GAHYLRQYLMRFLG-NH2 [Compound 658, H-GAHYLRQYLMRFLG-NH*TFA]”, the IC50 on FGFR2-IIIC (setting [2]) is approximately 0.008 mM; with NIH 3T3 cells (NIH 3T3 cells, 10 nM bFGF, FIG. 6, read-out: Concentration that half maximally reduces bFGF-induced proliferation) it was 40 µM; in the assay with p42-MAP kinase (1 nM bFGF, FIG. 5, read-out: Concentration that half maximally antagonizes bFGF activation of MAP-K), approximately 3 µM; in the assay with p42-MAP kinase (setting [3]) it was approximately 1 µM. Consider “AHYLRQYLMRFR-NH2 [Compound 673, H-AHYLRQYLMRFR-NH*TFA]”, for which the IC50 at FGFR2-IIIC (setting [2]) was approximately 0.008 mM. Still for that read-out and setting: the result for “GDVFLSMYQFSVIG [Compound 622, H-GDVFLSMYQFSVIG-OH*TFA]” reads more than 0.1 mM. Take `CC(=O)NCC(=O)N[C@@H](CS)C(=O)N[C@H](C(=O)N[C@@H](CC(=O)O)C(=O)N[C@@H](CC(C)C)C(=O)N[C@@H](Cc1ccc(O)cc1)C(=O)N[C@@H](Cc1c[nH]cn1)C(=O)N[C@@H](Cc1ccc(O)cc1)C(=O)N[C@H](C(=O)N[C@@H](Cc1ccc(O)cc1)C(=O)N[C@@H](CS)C(=O)NCC(N)=O)C(C)C)C(C)C` [Compound 514, Acetyl-GCVDLYHYVYCG-NH] (Ac-GCVDLYHYVYCG-NH2): the IC50 with NIH 3T3 cells was 10 to 100 µM; in the assay with p42-MAP kinase (Table 5 peptides, read-out: MAP-K), approximately 50 µM. Besides, the “Effect on proliferative activity of bFGF” value in the assay on NIH 3T3 cells (NIH 3T3 cells) is reported as “antagonists of the proliferative activity of bFGF”. With “GYFQYMALYG [Compound 567, H-GYFQYMALYG-OH*TFA]”, the IC50 at FGFR2-IIIC (setting [2]) was more than 0.1 mM. “ADGAAGYDWDDLLSGAA-NH2 [Compound 475, H-ADGAAGYDWDDLLSGAA-NH*TFA]”: the IC50 on FGFR2-IIIC (setting [1]) is more than 0.1 mM; in the assay on NIH 3T3 cells, more than 100 µM. For the compound `CC(C)C[C@H](NC(=O)[C@H](CC(=O)O)NC(=O)[C@@H](NC(=O)[C@H](CS)NC(=O)CNC(=O)[C@H](C)NC(=O)[C@H](C)NC(=O)CNC(=O)[C@H](CC(=O)O)NC(=O)[C@H](C)N)C(C)C)C(=O)N[C@@H](Cc1ccc(O)cc1)C(=O)N[C@@H](Cc1c[nH]cn1)C(=O)N[C@@H](Cc1ccc(O)cc1)C(=O)N[C@H](C(=O)N[C@@H](Cc1ccc(O)cc1)C(=O)N[C@@H](CS)C(=O)NCC(=O)NCC(=O)N[C@@H](C)C(=O)N[C@@H](C)C(N)=O)C(C)C` [Compound 507] (H-ADGAAGCVDLYHYVYCGGAA-NH2), the IC50 in the assay on NIH 3T3 cells fell in the range of 10 to 100 µM. The “Effect on proliferative activity of bFGF” value with NIH 3T3 cells (NIH 3T3 cells) is “antagonists of the proliferative activity of bFGF”. For “bFGF: basic fibroblast growth factor, the FGF receptor ligand used as stimulus and unlabeled competitor [reference compound]”, the “Activation of MAP-K” value with p42-MAP kinase (1 and 10 nM, without test peptide, FIG. 3) is on record as 40-60%.

The values above are taken from US6214795A, “Peptide compounds useful for modulating FGF receptor activity” (Praecis Pharmaceuticals, Inc., priority 1996, dated 2001).
